Test results published in the NIST ThermoML archive (doi:10.1016/j.tca.2008.12.007).
± gives the expanded uncertainty stated by the source.

Assay: xn = mol fraction of the nth substance listed
Conditions: 101 kPa, Liquid, Vibrating tube method

C1CCCNCC1 [azacycloheptane] + O
mass density [kg/m3]
Conditions	333.15 K	343.15 K	348.15 K	353.15 K
x2 = 0.0199	–	837.91 ± 0.3	833.38 ± 0.3	828.84 ± 0.3
x2 = 0.0395	–	838.84 ± 0.29	834.3 ± 0.29	829.73 ± 0.29
x2 = 0.0821	–	841.28 ± 0.28	836.69 ± 0.28	832.07 ± 0.28
x2 = 0.1198	–	843.4 ± 0.27	838.79 ± 0.27	834.14 ± 0.27
x2 = 0.1594	–	845.7 ± 0.25	841.06 ± 0.26	836.38 ± 0.26
x2 = 0.1994	–	848.34 ± 0.24	843.67 ± 0.24	838.95 ± 0.25
x2 = 0.2498	–	851.65 ± 0.23	846.94 ± 0.23	842.2 ± 0.23
x2 = 0.3	–	855.03 ± 0.22	850.31 ± 0.22	845.54 ± 0.22
x2 = 0.3499	–	858.87 ± 0.21	854.12 ± 0.21	849.32 ± 0.21
x2 = 0.4	–	862.76 ± 0.19	857.99 ± 0.2	853.18 ± 0.2
x2 = 0.4529	–	867.39 ± 0.18	862.6 ± 0.18	857.76 ± 0.19
x2 = 0.5008	–	871.87 ± 0.16	867.08 ± 0.17	862.24 ± 0.17
x2 = 0.5041	–	871.87 ± 0.16	867.07 ± 0.17	862.22 ± 0.17
x2 = 0.5508	–	876.55 ± 0.16	871.76 ± 0.17	866.92 ± 0.17
x2 = 0.5992	891.02 ± 0.15	881.58 ± 0.16	876.78 ± 0.16	871.95 ± 0.16
x2 = 0.65	896.87 ± 0.15	887.5 ± 0.15	882.74 ± 0.15	877.92 ± 0.16
x2 = 0.699	903.03 ± 0.14	893.76 ± 0.15	889.04 ± 0.15	884.27 ± 0.15
x2 = 0.7496	910.24 ± 0.14	901.13 ± 0.15	896.49 ± 0.15	891.79 ± 0.15
x2 = 0.7994	918.61 ± 0.15	909.74 ± 0.15	905.21 ± 0.15	900.62 ± 0.16
x2 = 0.8398	926.57 ± 0.16	917.97 ± 0.17	913.57 ± 0.17	909.09 ± 0.17
x2 = 0.8799	936.13 ± 0.18	927.91 ± 0.21	923.42 ± 0.2	918.78 ± 0.21
x2 = 0.92	948.28 ± 0.22	942.9 ± 0.24	938.07 ± 0.25	933.73 ± 0.27
x2 = 0.9599	964.06 ± 0.25	958.32 ± 0.25	954.48 ± 0.27	–
x2 = 0.96	964.12 ± 0.28	958.4 ± 0.33	954.96 ± 0.27	–
x2 = 0.9699	968.88 ± 0.3	963.25 ± 0.29	–	–
x2 = 0.98	974.02 ± 0.3	967.74 ± 0.27	964.39 ± 0.29	961.1 ± 0.28
